Assay results reported in US9849134B2, “Method of improving cognition and social behavior in humans having deficits therein due to neurodegenerative disorders and compounds and compositions therefor” (The Board of Trustees of the Leland Stanford Junior …, priority 2014, dated 2017).
“Also recorded” adds a separate entry of the source. Counter-ions that a name gives are not always drawn. Like-named read-outs stand apart in the source and are kept apart here. * marks the point of attachment. Myristoyl = CCCCCCCCCCCCCC(=O)*

How the values were obtained:
[1] = Xamoterol concentration in plasma and brain after s.c. injection; format: in vivo; conditions: mice; for concentration at 30 min / concentration at 1 h / concentration at 2 h: C57Bl/6, mouse, sc, 3 mg/kg s.c.
Description: Mice are euthanized at 3, 15, 30, 60, 120, 240 and 360 minutes after drug administration. Blood is drawn by cardiac puncture and collected in heparinized tubes. Plasma is immediately separated by centrifugation and stored at −80° C. until assay. For tissue distribution studies, tissue samples from the brain, heart, kidney, liver and spleen are collected 60 and 120 minutes after drug administration. The tissue samples are homogenized using 0.9% saline at a ratio of 1:2. The homogenates are stored at −80° C. until analysis. […] 2(2): p.

β-arrestin pathway = β-arrestin pathway activation; format: cell-based
[2] = test system: Thy1-hAPP^Lond/Swe+ mice (APP); experiment: Social recognition test in APP mouse model of AD; format: in vivo
Description: (§1) Behavioral testing. […] Drug treatment. […] Betaxolol was injected sub-cutaneously (1 mg/kg) or in the MeA (30 nmole/side). PKI 14-22 amide was dissolved in 30% acetonitrile and injected in the MeA (2.75 nmole/side).

pCREB [3] = experiment: Western blot of pCREB in C57B1/6 mice; format: in vivo
Description: (§2) Molecular analyses. Immunohistochemistry was used to assess c-Fos, tyrosine hydroxylase (TH) and β1-ADR. The quantitative analysis of stained cells was done in different brain regions according to the Mouse Brain Atlas. Cell counting was achieved using the unbiased-stereologic method. The total number of positive cells was quantified with the optical fractionator method using the StereoInvestigator software (MBF Bioscience, Williston, Vt., USA). The counting criteria were determined so as to obtain a mean coefficient of error ≦0.10. Analysis of pCREB was performed by western blot.
We then tested whether pharmacological modulation of β1-ADR affects CREB phosphorylation in the MeA in the context of social learning.

pCREB [4] = experiment: Western blot of pCREB in medial amygdala of APP mice and WT controls; format: in vivo
Description: as §2, with “Immunohistochemistry was used to assess c-Fos, tyrosine hydroxylase (TH) and β1-ADR.” left out, “blot. […] It was reported that in Alzheimer's disease several phosphorylated proteins and transcription factors are preferentially located in the cytoplasm (vs. the nucleus) and are thus inefficient in inducing expression of genes important for learning and memory.” for “blot.”

Thy1-APP^Lond/Swe+ mice = experiment: Working memory in Thy1-APP^Lond/Swe+ mice; format: in vivo; conditions: acute s.c. 3 mg/kg
5xFAD mice = experiment: Chronic dosing in 5xFAD mouse model of AD (memory, Morris-Water Maze, microglia, plaques); format: in vivo
wild type mice = experiment: Cardiac safety after chronic treatment in wild type mice; format: in vivo; conditions: 3 months
[5] = test system: Thy1-hAPP^Lond/Swe+ line transgenic mice; experiment: Activity chamber test (locomotor activity) in Thy1-hAPP^Lond/Swe+ mice; format: in vivo; conditions: 0.3 and 1 mg/kg s.c., chronic, after 1 month
[6] = test system: Thy1-hAPP^Lond/Swe+ line transgenic mice; experiment: Fear conditioning test in Thy1-hAPP^Lond/Swe+ mice; format: in vivo; conditions: 0.3 and 1 mg/kg s.c., chronic, after 2.5 months
[7] = test system: humans with heart failure; conditions: 200 mg twice daily for 2-12 months; cited from earlier work
mice and rats = conditions: cited from earlier work
C57B1/6 mice [8] = experiment: Social recognition tests (in-home cage social discrimination, 3-chamber) in C57B1/6 mice; format: in vivo
Description: as §1

β2-ADR KO mice = conditions: 3 mg/kg
Description: (§3) Behavioral testing. Social recognition was tested in two different tests: the 3-chamber social test developed by Nadler et al and the in-home cage social discrimination task developed by Macbeth et al. To differentiate between social recognition and recognition of non-social odors/objects non-social odor discrimination tests (olfactory habituation/dishabituation and olfactory recognition test) and an object recognition test were used.

C57B1/6 mice [9] = test system: C57B1/6 mice
Description: as §3
We assessed the ability of C57B1/6 mice to recognize a previously-met conspecific after an acute subcutaneous injection of various doses of a selective β1-ADR antagonist, betaxolol (0.01, 0.1 and 1 mg/kg).

c-Fos = test system: c-Fos
Description: as §2
Brain regions involved in social recognition have already been defined. Among them are the lateral septum, prefrontal cortex and MeA. […] We used c-Fos as a marker of neuronal activity and compared its expression in a group of C57B1/6 mice after social learning with a group of mice after both social learning and social recognition.

C57BI/6 mice = conditions: single dose 1 mg/kg
[10] = 1 mg/kg, 20 minutes prior to learning phase

Q: For `O=C(NCCNCC(O)COc1ccc(O)cc1)N1CCOCC1` (racemic) [xamoterol, 1-p-Hydroxyphenoxy-3-beta-(morpholinocarbonamido)ethyl-amino-2-propanol hydrogen fumarate], which concentration at 30 min ([1]; brain, read-out: Brain) is on record?
A: 168 ± 6.4 ng/mL

Q: And the concentration at 1 h ([1]; brain, read-out: Brain)?
A: 116 ± 9.1 ng/mL

Q: What about the concentration at 2 h ([1]; brain, read-out: Brain) of the same molecule?
A: 125 ± 7.4 ng/mL

Q: And the concentration at 30 min ([1]; plasma, read-out: Plasma)?
A: 274 ± 75.9 ng/mL

Q: What about the concentration at 1 h ([1]; plasma, read-out: Plasma) of the same molecule?
A: 45.1 ± 6.1 ng/mL

Q: And the concentration at 2 h ([1]; plasma, read-out: Plasma)?
A: 4.7 ± 0.7 ng/mL

Q: What about the “Passage of the BBB” value [1] of the same molecule?
A: passes the BBB and reach the central nervous system

Q: And the “Effect on β-arrestin pathway” value (β-arrestin pathway)?
A: no effect on the β-arrestin pathway

Q: What about the “Social recognition deficit of APP mice” value ([2]; 3 mg/kg systemic (s.c.), acute, prior to testing) of the same molecule?
A: rescued the social recognition deficit

Q: And the “Preference for unfamiliar intruder over empty cup” value ([2]; 3 mg/kg, WT and APP mice)?
A: did not affect the preference

Q: What about the “pCREB expression in mice brain” value (pCREB [3]; 3 mg/kg s.c., after 15 minutes) of the same molecule?
A: significant increase of pCREB

Q: And the “pCREB expression in MeA vs baseline” value (pCREB [3]; 3 mg/kg, 5 min after injection)?
A: increased

Q: What about the “Total pCREB in MeA of APP mice after social learning” value (pCREB [4]; APP mice) of the same molecule?
A: no significant increase

Q: What about the “pCREB in MeA of WT littermates after social learning” value (pCREB [4]; WT animals) of the same molecule?
A: induced an increase in pCREB

Q: And the “Nuclear pCREB level in medial amygdala of APP mice” value (pCREB [4]; injection prior to social learning, nuclear fraction)?
A: significantly higher

Q: What about the Working memory deficit (Thy1-APP^Lond/Swe+ mice) of the same molecule?
A: rescued; also recorded: rescues working memory and social recognition deficits

Q: What about the “Activated microglia and Aβ plaque clearance” value (5xFAD mice) of the same molecule?
A: increased activated microglia and Aβ plaque clearance

Q: And the “Performance in the Morris-Water Maze (escape latency, time in thigmotaxis)” value (5xFAD mice)?
A: improved

Q: And the Declarative memory deficit (5xFAD mice; daily oral 6 mg/kg over 3 months, 6 mg/kg)?
A: rescued; also recorded: rescues the declarative and spatial memory deficits

Q: What about the “Cardiovascular functions (BP, heart rate, EF, FS, HW/BW)” value (wild type mice; 3 mg/kg s.c., vs vehicle) of the same molecule?
A: did not develop pathological changes in cardiac functions; also recorded: did not show significant difference in cardiovascular functions

Q: What about the Myocardial fibrosis (wild type mice; 3 mg/kg s.c., vs vehicle) of the same molecule?
A: did not induce cardiac fibrosis; also recorded: did not show significant difference

Q: What about the “Myocardial structure (Masson's trichrome staining)” value (wild type mice; 3 mg/kg, s.c.) of the same molecule?
A: did not produce changes in myocardial structure

Q: And the “Hyperactivity phenotype (locomotor activity)” value [5]?
A: dose-dependent reversal of hyperactivity phenotype

Q: And the “Cognitive functioning (fear conditioning test)” value [6]?
A: dose-dependent improvement in cognitive functioning

Q: What about the “Side effects of chronic treatment in humans” value [7] of the same molecule?
A: without any significant side effects

Q: What about the “Retrieval deficit in mice with NA deficiency” value (mice and rats; mice with NA deficiency) of the same molecule?
A: can be rescued

Q: Which results are given for `CC(C)NCC(O)COc1ccc(CCOCC2CC2)cc1` (stereo not drawn) [betaxolol]?
A: Social recognition after injection in the MeA (C57B1/6 mice [8]; 30 nmole in the MeA): impairs social recognition; Social recognition: preference for novel intruder over familiar one (C57B1/6 mice [8]; 0.01 mg/kg s.c.): showed this preference; Social recognition: preference for novel intruder over familiar one (C57B1/6 mice [8]; 0.1 mg/kg s.c.): did not show a preference; Social recognition: preference for novel intruder over familiar one (C57B1/6 mice [8]; 1 mg/kg s.c.): did not show a preference; Long-term social memory, 24 hours after learning phase (C57B1/6 mice [8]; [10]): impaired long-term social memory; Short term social recognition, dosing before learning phase (C57B1/6 mice [8]; [10]): impaired short term social recognition; Social recognition, dosing before retrieval phase (C57B1/6 mice [8]; 1 mg/kg, 30 minutes prior to retrieval phase): did not impair social recognition; Social recognition in 3-chamber test (C57B1/6 mice [8]; 1 mg/kg, systemic injection prior to learning phase): impairs social recognition; Social learning: preference for unfamiliar mouse over empty cup (C57B1/6 mice [8]; 0.01 to 1 mg/kg): did not affect social learning; Social recognition in β2-ADR KO mice (β2-ADR KO mice): effectively impaired social recognition abilities; Ability to recognize a familiar odor or object over a new one (C57B1/6 mice [9]; 1 mg/kg): not affected; Non-social odor habituation, dishabituation and recognition (C57B1/6 mice [9]; 1 mg/kg): did not impair non-social odor recognition; Non-social odor recognition (heptanol / heptanol:octanol) (C57B1/6 mice [9]; betaxolol vs vehicle): did not impair non-social order recognition; Number of c-Fos positive cells in the MeA (c-Fos; 1 mg/kg prior to social recognition task): decreased the number of c-Fos positive cells in the MeA; Number of c-Fos positive cells in the thalamus (PV) (c-Fos; injection prior to social recognition task): did not affect the number of c-Fos positive cells in the thalamus; Percent of β1-ADR cells expressing c-Fos in MeA (c-Fos; vs vehicle-injected mice): significantly reduced; pCREB expression in MeA after 5 minutes of social interaction (pCREB [3]; 1 mg/kg, 60 minutes before social learning): significantly decreased; Contextual memory (C57BI/6 mice): impairment of contextual memory; Spatial navigation retrieval (mice and rats; wild-type mice and rats): produces spatial navigation retrieval deficit

Q: With `CC(C)NCC(O)c1ccc(O)c(O)c1` (stereo not drawn) [isoprenaline] as the molecule, how does the “Effect on β-arrestin pathway” value (β-arrestin pathway) read?
A: activates both cAMP and β-arrestin pathways

Q: With “PKI 14-22 amide myristoylated (Myristoyl-SGRTGRRNA-NH2; SMILES CCCCCCCCCCCCCC(=O)N[C@@H](CO)C(=O)NCC(=O)N[C@@H](CCCNC(=N)N)C(=O)N[C@H](C(=O)NCC(=O)N[C@@H](CCCNC(=N)N)C(=O)N[C@@H](CCCNC(=N)N)C(=O)N[C@@H](CC(N)=O)C(=O)N[C@@H](C)C(N)=O)[C@@H](C)O; UniProt P61925 14-22, looked up, fragment) [PKA inhibitor]” as the molecule, how does the “Preference for unfamiliar conspecific over empty cup after injection in the MeA” value (C57B1/6 mice [8]; 2.75 nmole in the MeA) read?
A: did not affect

Q: And the “Social recognition after injection in the MeA” value (C57B1/6 mice [8]; 2.75 nmole in the MeA)?
A: impaired the ability of mice to recognize between a new and familiar conspecific
